# In DBAASP:
# What was measured:
# Assay in all cases: ≥ marks a high value that may be exact or a test limit, other limits are often not marked, values filed in µg/mL are converted to µM
# Escherichia coli JM109 = system: Escherichia coli JM109
# Pseudomonas aeruginosa = system: Pseudomonas aeruginosa
# [1] = system: Staphylococcus aureus ATCC 6538P
# [2] = system: Staphylococcus aureus KO-4
# Staphylococcus aureus = system: Staphylococcus aureus
# [3] = system: Trichophyton mentagrophytes IFO 5466
# [4] = system: Trypanosoma brucei brucei GUT Tat3.1
# [5] = system: Bacillus subtilis IFO 3336
# [6] = system: Escherichia coli IFO 3301
# [7] = system: Acinetobacter baumannii ATCC 17978
# [8] = system: Acinetobacter baumannii AYE
# Escherichia coli LEC001 = system: Escherichia coli LEC001
# [9] = system: Escherichia coli NCTC 12923
# [10] = system: Klebsiella pneumoniae NCTC 13368
# [11] = system: Pseudomonas aeruginosa NCTC 13437
# [12] = system: Pseudomonas aeruginosa PAO1
# [13] = system: Staphylococcus aureus ATCC 9144
# [14] = system: Staphylococcus aureus USA 300
compound,measurement,setting,value
CC[C@H](C)[C@H](NC(=O)[C@H](C)NC(=O)[C@H](CC(C)C)NC(=O)[C@H](Cc1ccc(O)cc1)NC(=O)[C@H](CC(C)C)NC(=O)[C@H](C)N)C(=O)N[C@@H](CCCN=C(N)N)C(=O)N[C@@H](CCCN=C(N)N)C(=O)N[C@@H](CCCN=C(N)N)C(N)=O [ALYLAIRRR],MIC,Escherichia coli JM109,2.65 µM
same,MIC,Pseudomonas aeruginosa,354 µM
same,MIC,[1],1.33 µM
same,MIC,[2],≥ 530 µM
same,MIC,Staphylococcus aureus,21.2 µM
same,MIC,[3],≥ 53 µM
same,MIC,[4],≥ 125 µM
NCC(=O)N[C@@H](Cc1cnc[nH]1)C(=O)NCC(=O)N[C@@H](Cc1cnc[nH]1)C(=O)NCC(=O)N[C@@H](Cc1cnc[nH]1)C(=O)NCC(=O)N[C@@H](Cc1cnc[nH]1)C(=O)NCC(=O)N[C@@H](Cc1cnc[nH]1)C(=O)O [GHGHGHGHGH],MIC,[5],≥ 506 µM
same,MIC,[6],≥ 506 µM
CC[C@H](C)[C@H](NC(=O)CNC(=O)[C@H](CO)NC(=O)[C@@H](N)Cc1c[nH]c2ccccc12)C(=O)N[C@@H](CCCN=C(N)N)C(=O)NCC(=O)N[C@@H](Cc1ccc(O)cc1)C(=O)N[C@@H](CCCCN)C(=O)NCC(=O)NCC(=O)N[C@@H](Cc1ccc(O)cc1)C(=O)N[C@@H](CCCCN)C(=O)NCC(=O)N[C@@H](CC(C)C)C(=O)N[C@@H](Cc1ccccc1)C(=O)N[C@@H](CCCCN)C(=O)N[C@@H](CCC(N)=O)C(=O)N[C@H](C(=O)N[C@@H](CC(N)=O)C(=O)N[C@@H](Cc1ccc(O)cc1)C(N)=O)[C@@H](C)O [WSGIRGYKGGYKGLFKQTNY],MIC,[7],≥ 55.1 µM
same,MIC,[8],≥ 55.1 µM
same,MIC,Escherichia coli LEC001,≥ 55.1 µM
same,MIC,[9],≥ 55.1 µM
same,MIC,[10],≥ 55.1 µM
same,MIC,[11],≥ 55.1 µM
same,MIC,[12],> 55.1 µM
same,MIC,[13],≥ 55.1 µM
same,MIC,[14],≥ 55.1 µM
